Patent US5486526A, “Histamine H3 -receptor antagonists and therapeutic uses thereof” (The University of Toledo, priority 1993, dated 1996)
Read-outs that look alike come from different tables or passages of the source.

How the values were obtained:
Adenosine = assay: NOVASCREEN receptor selectivity assay: Adenosine; type: binding; conditions: 10^-5 M
Quisqualate = assay: NOVASCREEN receptor selectivity assay: Quisqualate; type: binding; conditions: 10^-5 M
Kainate = assay: NOVASCREEN receptor selectivity assay: Kainate; type: binding; conditions: 10^-5 M
MK-801 = assay: NOVASCREEN receptor selectivity assay: MK-801; type: binding; conditions: 10^-5 M
NMDA = assay: NOVASCREEN receptor selectivity assay: NMDA; type: binding; conditions: 10^-5 M
PCP = assay: NOVASCREEN receptor selectivity assay: PCP; type: binding; conditions: 10^-5 M
Glycine [1] = assay: NOVASCREEN receptor selectivity assay: Glycine (excitatory); type: binding; conditions: 10^-5 M
Glycine [2] = assay: NOVASCREEN receptor selectivity assay: Glycine (inhibitory); type: binding; conditions: 10^-5 M
GABAA = assay: NOVASCREEN receptor selectivity assay: GABAA; type: binding; conditions: 10^-5 M
GABAB = assay: NOVASCREEN receptor selectivity assay: GABAB; type: binding; conditions: 10^-5 M
Benzodiazephine = assay: NOVASCREEN receptor selectivity assay: Benzodiazephine; type: binding; conditions: 10^-5 M
Dopamine 1 = assay: NOVASCREEN receptor selectivity assay: Dopamine 1; type: binding; conditions: 10^-5 M
Dopamine 2 = assay: NOVASCREEN receptor selectivity assay: Dopamine 2; type: binding; conditions: 10^-5 M
Serotonin 1 = assay: NOVASCREEN receptor selectivity assay: Serotonin 1; type: binding; conditions: 10^-5 M
Serotonin 2 = assay: NOVASCREEN receptor selectivity assay: Serotonin 2; type: binding; conditions: 10^-5 M
Angiotensin = assay: NOVASCREEN receptor selectivity assay: Angiotensin; type: binding; conditions: 10^-5 M
Arg-Vasopressin V1 = assay: NOVASCREEN receptor selectivity assay: Arg-Vasopressin V1; type: binding; conditions: 10^-5 M
Bombesin = assay: NOVASCREEN receptor selectivity assay: Bombesin; type: binding; conditions: 10^-5 M
CCK Central = assay: NOVASCREEN receptor selectivity assay: CCK Central; type: binding; conditions: 10^-5 M
CCK Peripheral = assay: NOVASCREEN receptor selectivity assay: CCK Peripheral; type: binding; conditions: 10^-5 M
Substance K = assay: NOVASCREEN receptor selectivity assay: Substance K; type: binding; conditions: 10^-5 M
Substance P = assay: NOVASCREEN receptor selectivity assay: Substance P; type: binding; conditions: 10^-5 M
NPY = assay: NOVASCREEN receptor selectivity assay: NPY; type: binding; conditions: 10^-5 M
Neurotensin = assay: NOVASCREEN receptor selectivity assay: Neurotensin; type: binding; conditions: 10^-5 M
Somatostatin = assay: NOVASCREEN receptor selectivity assay: Somatostatin; type: binding; conditions: 10^-5 M
VIP = assay: NOVASCREEN receptor selectivity assay: VIP; type: binding; conditions: 10^-5 M
Calcium [3] = type: binding; conditions: 10^-5 M
Calcium [4] = assay: NOVASCREEN receptor selectivity assay: Calcium (Nifedipine); type: binding; conditions: 10^-5 M
Chloride = assay: NOVASCREEN receptor selectivity assay: Chloride; type: binding; conditions: 10^-5 M
Potassium = assay: NOVASCREEN receptor selectivity assay: Potassium; type: binding; conditions: 10^-5 M
ANF (rat) = assay: NOVASCREEN receptor selectivity assay: ANF (rat); type: binding; conditions: 10^-5 M
EGF = assay: NOVASCREEN receptor selectivity assay: EGF; type: binding; conditions: 10^-5 M
NGF = assay: NOVASCREEN receptor selectivity assay: NGF; type: binding; conditions: 10^-5 M
[5] = tested on: Adenylate Cyclase Forskolin; assay: NOVASCREEN receptor selectivity assay: Adenylate Cyclase, Forskolin; type: binding; conditions: 10^-5 M
[6] = tested on: Protein Kinase C Phorbol Ester; assay: NOVASCREEN receptor selectivity assay: Protein Kinase C, Phorbol Ester; type: binding; conditions: 10^-5 M
Inositol Triphosphate [7] = assay: NOVASCREEN receptor selectivity assay: Inositol Triphosphate; type: binding; conditions: 10^-5 M
[8] = tested on: adenosine, excitory or inhibitory amino acid, dopamine, serotonin, or a broad range of petidergic receptors, or to ion channel proteins, peptide factor or …; assay: NOVASCREEN receptor selectivity study (whole panel); type: binding; conditions: 10^-5 M
[9] = tested on: H3 receptors in the cortex; assay: Blood-brain barrier penetration by ex vivo binding of [^3 H]-N^α -methylhistamine in rat cortex
Procedure: Blood-brain barrier penetration in rats was assessed by an ex vivo binding procedure. Young adult male Long-Evans rats were injected i.p. with saline or H3 antagonists in saline. At various times after injection animals were sacrificed, the cortex was removed, homogenized in 50 mM Na/K-phosphate buffer, pH 7.4, and the binding of 1 nM [^3 H]-N^α -methylhistamine was measured using 400 μg protein of the homogenate. Nonspecific binding was accounted for by the inclusion of excess thioperamide in some samples. Under these conditions, the binding was approximately 90% specific.

Male albino CF-1 mice = assay: Behavioral effects in mice: sleep induced by (R)α-methylhistamine; type: in vivo, mouse
Procedure: (§1) The overall strategy to show central nervous system antagonist activity was to challenge effects of the agonist (R)α-methylhistamine. Therefore, the first objective was to establish a dose response curve for behavioral effects of (R)α-methylhistamine. Male albino CF-1 mice weighing 20-30 g were used. Saline or (R)α-methylhistamine in saline was injected i.p. in a volume ≤0.4 ml. […] Animals were scored for the presence (1) or absence (0) of the behavior and the results were reported as the accumulated score for a 30 minute period (maximum score=9).
(§2) To assess the effects of antagonists, they were administered with the (R)α-methylhistamine in saline.

Male Sprague-Dawley rats = assay: Food intake in 24-hour-fasted rats; type: in vivo, rat
Procedure: Male Sprague-Dawley rats (200-300 grams) were used in all experiments. Rats were fasted for 24 hours prior to all experiments. Water was provided ad lib. Rats were singly placed in a ventilated plastic circular rat metabolism chamber with a stainless steel wire mess grid flood equipped with food and H2 O attachments. A measured quantity of food (50 grams) and water (100 mls) was supplied through attachments to the metabolism chambers. Food and water intake was measured at the 2, 4 and 6 hour time periods.
Final volumes were 1.0 ml/kg. Subsequently, they were left undisturbed for the experimental period except when the food and H2 O attachments were briefly removed for measurement of food and water intake. At the completion of the experiment, animals were returned to their home cages. The results are found in Table III and FIGS. 7 and 8.

[10] = Toxicity observed in testing to date; type: in vivo; conditions: all testing to date, even at high doses
H3 -receptor = assay: In vivo assays of H3-receptor antagonist effect (overall)
Procedure: as §1, §2

Inositol Triphosphate [11] = conditions: reference compound; cited from earlier work
histamine H3 receptor = target: T1, histamine H3 receptor (Rattus norvegicus, UniProt Q9QYN8); assay: Inhibition of [^3 H]-N-alpha-methylhistamine binding to rat brain membranes
T1 construct: from tissue
T1 sequence (Q9QYN8 whole entry): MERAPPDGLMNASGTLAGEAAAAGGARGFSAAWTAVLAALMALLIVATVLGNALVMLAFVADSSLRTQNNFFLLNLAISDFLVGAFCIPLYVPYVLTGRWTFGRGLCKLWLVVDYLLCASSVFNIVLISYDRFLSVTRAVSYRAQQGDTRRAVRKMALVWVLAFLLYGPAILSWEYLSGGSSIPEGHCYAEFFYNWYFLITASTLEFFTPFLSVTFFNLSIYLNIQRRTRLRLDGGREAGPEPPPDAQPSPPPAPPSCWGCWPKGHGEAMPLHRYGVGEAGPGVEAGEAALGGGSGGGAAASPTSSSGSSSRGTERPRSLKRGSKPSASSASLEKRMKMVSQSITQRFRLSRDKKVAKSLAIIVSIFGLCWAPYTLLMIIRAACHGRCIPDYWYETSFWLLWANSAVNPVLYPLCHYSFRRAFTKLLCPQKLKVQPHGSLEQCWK
Procedure: A series of compounds were prepared and tested for their histamine H3 receptor antagonist activity. The antagonist activity of the compounds was detected by observing inhibition of (^3 H)-N-(alpha)methylhistamine activity on rat brain membranes.
The various compounds were tested for the ability to bind to the histamine H3 receptor. A binding assay in a rat brain membrane preparation, based on inhibition of binding of [^3 H]-N-alpha-methylhistamine using excess unlabeled alpha-methylhistamine to account for nonspecific binding, was developed.

histamine H3 receptors = conditions: in vitro; cited from earlier work
brain in rats = conditions: cited from earlier work
[12] = tested on: animal toxicity studies or in clinical usage; conditions: cited from earlier work
peptic ulcer patients = conditions: cited from earlier work

O=C(CCCCC1CCCCC1)N1CCC(c2c[nH]cn2)CC1 [Compound 1, 4-(1-cyclohexylvaleroyl-4-piperidyl)-1H-imidazole]
Initial Percent Inhibition (Average; N = 2) (Adenosine): -3.0% | Initial Percent Inhibition (Average; N = 2) (Quisqualate): -1.8% | Initial Percent Inhibition (Average; N = 2) (Kainate): 42.1% | Initial Percent Inhibition (Average; N = 2) (MK-801): -8.6% | Initial Percent Inhibition (Average; N = 2) (NMDA): -4.5% | Initial Percent Inhibition (Average; N = 2) (PCP): 9.7% | Initial Percent Inhibition (Average; N = 2) (Glycine [1]): 1.8% | Initial Percent Inhibition (Average; N = 2) (Glycine [2]): 17.4% | Initial Percent Inhibition (Average; N = 2) (GABAA): 0.6% | Initial Percent Inhibition (Average; N = 2) (GABAB): 0.0% | Initial Percent Inhibition (Average; N = 2) (Benzodiazephine): 2.7% | Initial Percent Inhibition (Average; N = 2) (Dopamine 1): 6.4% | Initial Percent Inhibition (Average; N = 2) (Dopamine 2): 3.5% | Initial Percent Inhibition (Average; N = 2) (Serotonin 1): -3.6% | Initial Percent Inhibition (Average; N = 2) (Serotonin 2): 10.5% | Initial Percent Inhibition (Average; N = 2) (Angiotensin): 6.5% | Initial Percent Inhibition (Average; N = 2) (Arg-Vasopressin V1): 10.1% | Initial Percent Inhibition (Average; N = 2) (Bombesin): -5.5% | Initial Percent Inhibition (Average; N = 2) (CCK Central): 18.6% | Initial Percent Inhibition (Average; N = 2) (CCK Peripheral): 6.9% | Initial Percent Inhibition (Average; N = 2) (Substance K): 29.2% | Initial Percent Inhibition (Average; N = 2) (Substance P): 20.0% | Initial Percent Inhibition (Average; N = 2) (NPY): -8.7% | Initial Percent Inhibition (Average; N = 2) (Neurotensin): -10.5% | Initial Percent Inhibition (Average; N = 2) (Somatostatin): 4.1% | Initial Percent Inhibition (Average; N = 2) (VIP): 17.1% | Initial Percent Inhibition (Average; N = 2) (Calcium [3]): 1.9% | Initial Percent Inhibition (Average; N = 2) (Calcium [4]): 8.1% | Initial Percent Inhibition (Average; N = 2) (Chloride): -3.4% | Initial Percent Inhibition (Average; N = 2) (Potassium): 7.7% | Initial Percent Inhibition (Average; N = 2) (ANF (rat)): 0.1% | Initial Percent Inhibition (Average; N = 2) (EGF): 18.1% | Initial Percent Inhibition (Average; N = 2) (NGF): 17.1% | Initial Percent Inhibition (Average; N = 2) [5]: 2.1% | Initial Percent Inhibition (Average; N = 2) [6]: 0.9% | Initial Percent Inhibition (Average; N = 2) (Inositol Triphosphate [7]): 9.2% | binding to panel receptors (in words) [8]: no significant binding | penetration of the blood-brain barrier (in words) ([9]; 50 and 70 mg/kg, one hour after injection): penetrates the blood-brain barrier one hour after injections | penetration of the blood-brain barrier compared with thioperamide (in words) ([9]; taking into account the difference in affinity): penetrates the blood-brain barrier at least as well as thioperamide | soporific effect of (R)α-methylhistamine (in words) (Male albino CF-1 mice; 25 mg/kg (R)α-methylhistamine): inhibited the soporific effect | food intake 2 HR (Male Sprague-Dawley rats; 3 mg/kg i.p.): 5.687 | food intake 4 HR (Male Sprague-Dawley rats; 3 mg/kg i.p.): 7.333 | food intake 2 HR (Male Sprague-Dawley rats; 10 mg/kg i.p.): 2.000 | food intake 4 HR (Male Sprague-Dawley rats; 10 mg/kg i.p.): 5.167 | food intake 2 HR (Male Sprague-Dawley rats; 30 mg/kg i.p.): 1.167 | food intake 4 HR (Male Sprague-Dawley rats; 30 mg/kg i.p.): 2.333 | food intake 6 HR (Male Sprague-Dawley rats; 30 mg/kg i.p.): 5.000 | toxicity (in words) [10]: no toxicity | H3 -receptor antagonist effect (in words) (H3 -receptor): effective as an H3 -receptor antagonist

O=P(O)(O)O[C@@H]1[C@H](O)[C@H](O)[C@@H](OP(=O)(O)O)[C@H](OP(=O)(O)O)[C@H]1O [IP3]
Ki (Inositol Triphosphate [11]): 12.5 nM

S=C(NC1CCCCC1)N1CCC(c2cnc[nH]2)CC1 [Thioperamide, reference compound]
IC50 (histamine H3 receptor): 4 ± 0.6 nM | IC50 (histamine H3 receptor; read-out: affinity, repeated in text): 4 nM | binding of [^3 H]-N^α -methylhistamine to cortex (in words) ([9]; 2, 5, and 10 mg/kg i.p., 15 min after injection): decreased the binding of [^3 H]-N^α -methylhistamine | penetration of the blood-brain barrier (in words) ([9]; thioperamide 2, 5, 10 mg/kg i.p., 15 min): able to penetrate the blood-brain barrier | soporific effect of (R)α-methylhistamine (in words) (Male albino CF-1 mice; 30 mg/kg of (R)α-methylhistamine): able to inhibit the soporific effect | behavior with antagonist alone (in words) (Male albino CF-1 mice; in the absence of the α-methylhistamine H3 receptor agonist): animals were very active, exhibiting normal behaviors | Ki (histamine H3 receptors): 4.3 nM | dose required in vivo to inhibit histamine release from the brain (in words) (brain in rats): relatively high doses are required in vivo

CN/C(=N/CCSCc1nc[nH]c1C)NC#N [cimetidine]
granulocytopenia or other side effects (in words) [12]: did not cause granulocytopenia, or any other side effects

C/N=C(\S)NCCSCc1[nH]cnc1C [metiamide]
granulocytopenia (in words) (peptic ulcer patients): low incidence of granulocytopenia
